Data published in paper PMC11990103, “Anticancer Activity and Safety Profile of Novel 1-(4-Fluorophenoxyacetyl)-4-substituted Thio/Semicarbazide Derivatives” (Molecules, 2025).

Legend:
[1] = design: method as in PMID 14912098; details: as toxic as thiosemicarbazide; cited from earlier work
[2] = system: G-361 melanoma cell line; test: MTT cytotoxicity assay; assay type: cell-based, human; details: MTT, 48 h treatment
Description: (§1) These cancer cell lines comprised prostate cancer (PC-3, DU-145, LNCaP), melanoma (SK-MEL28, A375, G-361), breast cancer (MCF-7, MDA-MB-231), and lung cancer (NCI-H1563). The MTT assay was carried out across a wide range of concentrations for 48 h.
(§2) The research was conducted on one primary cell line: BJ (fibroblast) and four types of cancerous ones: three prostate cancer cell lines (PC-3, DU-145, LNCaP); 3 Melanoma cell lines (MEL-28, A375, G-361); 2 breast cancer cell lines (MCF-7, MDA-MB-23) and one lung cancer cell line (NCI-H1563). All cell lines were obtained from the American Type Culture Collection (ATCC, Manassas, VA, USA) and were grown in media (Corning, New York, NY, USA) according to ATCC guidelines. The culture media was enriched with 10% heat-inactivated fetal bovine serum (Life Technologies, Carlsbad, CA, USA) and antibiotics: penicillin (100 units) and streptomycin (100 μg/mL) from Sigma-Aldrich (St. Louis, MO, USA). The cells were incubated at 37 °C with 5% CO2 in air.
(§3) The cytotoxic analysis of thiosemicarbazides (TSC) (AB1–AB6) and semicarbazides (SC) (AB7–AB12) was conducted in various concentrations. […] The cells were treated with compounds or DMSO as a vehicle in control cultures for 48h. IC50 values were determined using the AAT Bioquest IC50 calculator (AAT Bioquest, Inc., Pleasanton, CA, USA, Quest Graph™ EC50 Calculator. https://www.aatbio.com/tools/ec50-calculator) (accessed on 7 October 2024).
(§4) The cytotoxic activity of the thiosemicarbazides and semicarbazides was measured using the MTT colorimetric assay (MTT Cell Proliferation Assay Kit—Invitrogen, Waltham, MA, USA). The cells were seeded in the 96-well plates at a density of 1.5 × 10^5 cells/mL. After reaching 70–80% of confluence, the tested compounds in a wide range of concentrations were added. Plates were incubated for 48 h at 37 °C in 5% CO2 air. Then, […] tetrazolium salt (3-(4,5-dimethylthiazol-2-yl)-2,5-diphenyltetrazolium bromide)—MTT reagent (0.5 mg/mL) dissolved in PBS was added to each well for 4 h. The MTT solution was then removed from above the water-insoluble purple formazan crystals, which were then dissolved in DMSO (dimethyl sulfoxide, […]; POCH, Gliwice, Poland). The absorbance value of obtained solutions was measured using a PowerWave ™ microplate spectrophotometer (Bio-Tek Instruments, Winooski, VT, USA) at a wavelength of 570 nm. Each cytotoxicity assay was repeated three times in triplicates.

[3] = system: MCF-7 breast cancer cell line; test: MTT cytotoxicity assay; assay type: cell-based, human; details: 48 h treatment
Description: as §1, §2, §3, §4

[4] = system: NCI-H1563 lung cancer cell line; test: MTT cytotoxicity assay; assay type: cell-based, human; details: 48 h treatment
Description: as §1, §2, §3, §4

[5] = system: MDA-MB-231 breast cancer cell line; test: MTT cytotoxicity assay; assay type: cell-based, human; details: 48 h treatment
Description: as §1, §2, §3, §4

[6] = system: LNCaP prostate cancer cell line; test: MTT cytotoxicity assay; assay type: cell-based, human; details: MTT, 48 h treatment
Description: as §1, §2, §3, §4

[7] = system: A375 melanoma cell line; test: MTT cytotoxicity assay; assay type: cell-based, human; details: 48 h treatment
Description: as §1, §2, §3, §4

[8] = system: SK-MEL28 melanoma cell line; test: MTT cytotoxicity assay; assay type: cell-based, human; details: 48 h treatment
Description: as §1, §2, §3, §4

[9] = system: PC-3 prostate cancer cell line; test: MTT cytotoxicity assay; assay type: cell-based, human; details: 48 h treatment
Description: as §1, §2, §3, §4

[10] = system: DU-145 prostate cancer cell line; test: MTT cytotoxicity assay; assay type: cell-based, human; details: 48 h treatment
Description: as §1, §2, §3, §4

[11] = system: BJ fibroblasts; test: MTT cytotoxicity assay, normal cells; assay type: cell-based, human; details: 48 h treatment, read-out: IC50 BJ (fibroblast)
Description: as §1, §2, §3, §4

[12] = system: G-361 melanoma cells; design: method as in PMID 35204651; details: cited from earlier work
[13] = system: zebrafish embryos; design: method as in PMID 36436567; details: cited from earlier work
[14] = system: tested cancer cell lines (PC-3, DU-145, LNCaP, SK-MEL28, A375, G-361, MCF-7, MDA-MB-231, NCI-H1563); test: MTT cytotoxicity assay, panel of nine cancer cell lines as a whole; assay type: cell-based, human
Description: as §1
The research was conducted on one primary cell line: BJ (fibroblast) and four types of cancerous ones: three prostate cancer cell lines (PC-3, DU-145, LNCaP); 3 Melanoma cell lines (MEL-28, A375, G-361); 2 breast cancer cell lines (MCF-7, MDA-MB-23) and one lung cancer cell line (NCI-H1563). […]
The cytotoxic analysis of thiosemicarbazides (TSC) (AB1–AB6) and semicarbazides (SC) (AB7–AB12) was conducted in various concentrations. […] IC50 values were determined using the AAT Bioquest IC50 calculator (AAT Bioquest, Inc., Pleasanton, CA, USA, Quest Graph™ EC50 Calculator. https://www.aatbio.com/tools/ec50-calculator) (accessed on 7 October 2024).
The cytotoxic activity of the thiosemicarbazides and semicarbazides was measured using the MTT colorimetric assay (MTT Cell Proliferation Assay Kit—Invitrogen, Waltham, MA, USA). […] The absorbance value of obtained solutions was measured using a PowerWave ™ microplate spectrophotometer (Bio-Tek Instruments, Winooski, VT, USA) at a wavelength of 570 nm. […]

Row | Structure (SMILES) | toxicity relative to thiosemicarbazide [1] | IC50 [2] | IC50 [3] | IC50 [4] | IC50 [5] | IC50 [6] | IC50 [7] | IC50 [8] | IC50 [9] | IC50 [10] | IC50 [11] | population of cells in the sub-G1 phase [12] | morphological abnormalities, including cardiotoxicity [13] | IC50 ([14]; MTT, 48 h, thiosemicarbazides tested 500 to 100 μM, semicarbazides 100 μM to 1 μM, read-out: IC50 in the tested cancer cell lines (stated for the panel)) | selectivity index (SI) ([14]; IC50 normal cells (BJ) divided by IC50 cancer cells, cell line not specified)
1 | NNC(N)=O [semicarbazide] | about 1/20 | – | – | – | – | – | – | – | – | – | – | – | – | – | –
2 | O=C(COc1ccc(F)cc1)NNC(=S)Nc1cccc(Cl)c1 [AB3] | – | 248 µM | 456 µM | 437 µM | 495 µM | 175 µM | 400 µM | 302 µM | 467 µM | 268 µM | 422 µM | – | – | – | –
3 | O=C(COc1ccc(F)cc1)NNC(=S)Nc1ccc(Cl)cc1Cl [AB5] | – | 276 µM | 421 µM | 372 µM | 445 µM | 154 µM | 384 µM | 297 µM | 395 µM | 401 µM | 303 µM | – | – | – | –
4 | CSc1ccc(NC(=S)NNC(=O)COc2ccc(Cl)cc2Cl)cc1 [PK2] | – | – | – | – | – | – | – | – | – | – | – | increase | – | – | –
5 | O=C(COc1ccc(F)cc1)NNC(=S)Nc1ccc(Cl)cc1 [AB4] | – | 265 µM | 343 µM | 293 µM | 421 µM | 257 µM | 399 µM | 322 µM | 355 µM | 297 µM | 313 µM | – | – | – | –
6 | CCCCCCNC(=O)NNC(=O)Cc1ccc([N+](=O)[O-])cc1 [1-[(4-nitrophenyl)acetyl]-4-hexylsemicarbazide] | – | – | – | – | – | – | – | – | – | – | – | – | do not cause morphological abnormalities, including cardiotoxicity | – | –
7 | N.N.[Cl][Pt][Cl] [Cisplatin, reference compound] | – | 12.5 µM | 22.6 µM | 2.78 µM | 38.7 µM | 31.5 µM | 18.2 µM | 25.8 µM | 52.2 µM | 64.1 µM | – | – | – | – | –
8 | O=C(COc1ccc(F)cc1)NNC(=S)Nc1ccccc1 [AB1] | – | 369 µM | > 500 µM | > 500 µM | > 500 µM | 252 µM | > 500 µM | > 500 µM | > 500 µM | > 500 µM | 498 µM | – | – | > 500 µM | –
9 | CCNC(=O)NNC(=O)c1ccc([N+](=O)[O-])cc1 [1-(4-nitrobenzoyl)-4-ethylsemicarbazide] | – | – | – | – | – | – | – | – | – | – | – | – | do not cause morphological abnormalities, including cardiotoxicity | – | –
10 | O=C(COc1ccc(F)cc1)NNC(=S)Nc1ccc(Cl)c(Cl)c1 [AB6] | – | 210 µM | 240 µM | 242 µM | 334 µM | 121 µM | 257 µM | 195 µM | 388 µM | 343 µM | < 100 µM | – | – | – | < 1
